Measurements published in patent US20050260158A1, “Human stem cell materials and methods” (priority 2003, published 2005).
Read-outs that look alike come from different tables or passages of the source.

Key:
MDSC cultures = assay: HGF-induced hepatocyte differentiation of MDSC cultures; assay type: cell-based, human
Source text: A smaller fraction of 33±4% also immunostained for cytokeratin 7, which is a marker of bile duct epithelium (Ruck et al., Histopathology 31: 324-329 (1997)). Only 8±5% of control cells immunostained for albumin, 6±5% for AFP, and 7±3% for cytokeratin 7.

[1] = system: MDSC colonies Clone 1 and Clone 2; settings: 50 ng/ml HGF, seven days
Procedure: To determine whether progeny of colonies derived from single MDSCs can be induced to differentiate into distinct cell lineages, cells from a five-day, 50 ng/ml, M-CSF-treated culture enriched to contain 99.97% peripheral blood monocytes were inoculated into 12 U-bottom tissue culture plates, 96 wells each, at 0.8 cells/well in 0.1-0.2 ml growth medium. The cells were then incubated in the presence of 50 ng/ml M-CSF and 1,000 units/ml LIF for 15-20 days. Additionally, one plate was incubated with 25% conditioned medium from a five-day, 50 ng/ml, M-CSF treated culture. […] The few wells that contained more than one cell were excluded from further experimentation. Medium was replaced every 5-7 days.
At 45-52 days, these cells were dispersed by forceful pipetting, without lidocaine, into flat-bottom, 96-well, tissue culture plates. […] Two colonies of MDSCs, each of which had arisen from a single cell, were chosen for further differentiation experiments and were termed Clone 1 and Clone 2. […] These antibodies separately recognized cell-surface markers that included the T lymphocyte marker CD3, the epithelial marker keratin, the endothelial marker vWF, the neuronal marker MAP1-B, and the hepatocyte marker AFP.

HGF: recombinant human hepatocyte growth factor
cells displaying round or oval-like flattened morphology (MDSC cultures; 100 ng/ml HGF, 5-7 days): 75-80%
cells immunostaining for cytokeratin 7 (MDSC cultures; 100 ng/ml HGF, 5-7 days): 33±4%
treated cells immunostaining for AFP (MDSC cultures; 100 ng/ml HGF, 5-7 days): 81±7%
treated cells immunostaining for albumin (MDSC cultures; 100 ng/ml HGF, 5-7 days): 75±7%
Percentage of cells displaying immunostaining for AFP (MDSC cultures; HGF 50 ng/ml (Table 3)): 81 ± 7%
Percentage of cells displaying immunostaining for Albumin (MDSC cultures; HGF 50 ng/ml (Table 3)): 75 ± 7%
Percentage of cells displaying immunostaining for Cytokeratin 7 (MDSC cultures; HGF 50 ng/ml (Table 3)): 33 ± 4%
Immunostained cells (%), AFP (Hepatocyte) ([1]; Clone 1): 88%
Immunostained cells (%), AFP (Hepatocyte) ([1]; Clone 2): 75%
